Results from patent US6605609B2, “Thizaine oxazolidinone” (Pharmacia & Upjohn Company, priority 2000, dated 2003).
Converted amounts (≈) assume the structure as drawn.

Columns and labels:
[1] = system: S. aureus (52 isolates), methicillin-resistant; experiment: MIC by agar dilution (MIC90); assay type: cell-based, Staphylococcus aureus; conditions: minimum inhibitory concentration required to inhibit 90% of the isolates
Excerpt: The in vitro activity of the compound of this invention can be assessed by standard testing procedures such as the determination of minimum inhibitory concentration (MIC) by agar dilution as described in “Approved Standard. Methods for Dilution Antimicrobial Susceptibility Tests for Bacteria That Grow Aerobically”, 3rd. ed., published 1993 by the National Committee for Clinical Laboratory Standards, Villanova, Pa., USA.

[2] = Loss during and following terminal moist heat sterilization in container; assay type: physicochemical; conditions: container-solution contact surface made of at least 50% polyolefin
Excerpt: When terminally moist heat sterilizing an IV solution, the solution is placed in the container in which (1) it will be stored and then transferred to the container from which it will ultimately be administered, or (2) stored and then ultimately administered from the same container to deliver the IV solution to the patient. […] What is essential is that the container-solution contact surface material be primarily a polyolefin; the remainder of the container can be made from polyolefin or other materials. It is preferred that the container-solution contact surface is made of from about 50 to about 100% polyolefin. It is more preferred that the container-solution contact surface is made of from about 70 to about 90% polyolefin. It is more preferred that the container-solution contact surface is made of from about 80% polyolefin. It is even more preferred that the container-solution contact surface is made of polyolefin.

Structure (SMILES)	MIC90 S. aureus (52 isolates), methicillin-resistant [1]	loss of the compound during and following terminal moist heat sterilization [2]	melting point
CC(=O)NC[C@H]1CN(c2cc(F)c(N3CCS(=O)(=O)CC3)c(F)c2)C(=O)O1 [The compound of formula I, N-({(5S)-3-[4-(1,1-dioxido-4-thiomorpholinyl)-3,5-difluorophenyl]-2-oxo-1,3-oxazolidin-5-yl}methyl)acetamide]	2 µg/mL	significantly much less loss	187 to 189.5 °C
CC(=O)NC[C@H]1CN(c2ccc(N3CCOCC3)c(F)c2)C(=O)O1 [linezolid, reference compound]	4 µg/mL (≈ 11.9 µM)		
